Test results: patent US5780245A, “Polypeptides having a serotonin receptor activity, nucleic acids coding for these polypeptides and uses” (priority 1992, dated 1998)
Read-outs that look alike come from different tables or passages of the source.

Assays:
whole (N) 5HT2C receptor = whole (N) 5HT2C receptor (Mus musculus, UniProt Q02152); test: biochemical; assay type: binding; conditions: for competition / order of efficacy of displacement: displacement of [^125 I]DOI
[1] = target: T1, truncated (T) 5HT2C receptor (Mus musculus, UniProt Q02152, S167T); test: biochemical; assay type: binding
T1 sequence (Q02152 with tags, fused parts or gaps S167T): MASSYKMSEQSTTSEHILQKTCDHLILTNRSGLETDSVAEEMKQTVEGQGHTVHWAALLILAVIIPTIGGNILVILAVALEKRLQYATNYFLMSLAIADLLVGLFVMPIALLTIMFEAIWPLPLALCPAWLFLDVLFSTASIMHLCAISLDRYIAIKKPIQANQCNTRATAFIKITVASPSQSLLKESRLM

5-HT1C = target: T2, 5-HT1C (Homo sapiens, UniProt P28335); test: biochemical; assay type: binding
T2 sequence (P28335 33-458): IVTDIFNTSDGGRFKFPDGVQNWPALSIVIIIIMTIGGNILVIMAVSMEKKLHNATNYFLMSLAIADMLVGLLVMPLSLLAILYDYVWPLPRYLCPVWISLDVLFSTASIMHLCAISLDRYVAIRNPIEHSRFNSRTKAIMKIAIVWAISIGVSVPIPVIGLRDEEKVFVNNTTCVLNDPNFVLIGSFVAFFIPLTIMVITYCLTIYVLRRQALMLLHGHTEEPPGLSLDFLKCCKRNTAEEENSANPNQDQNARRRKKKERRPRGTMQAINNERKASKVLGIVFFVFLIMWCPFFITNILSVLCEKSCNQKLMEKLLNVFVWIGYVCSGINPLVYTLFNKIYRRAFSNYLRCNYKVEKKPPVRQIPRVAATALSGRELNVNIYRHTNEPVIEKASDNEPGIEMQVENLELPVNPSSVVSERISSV

5-HT2 = 5-HT2 (Homo sapiens, UniProt P28223); test: binding to 5-HT2 (Table 1 comparison)
5-HT2, sequence (P28223 whole entry, species assumed): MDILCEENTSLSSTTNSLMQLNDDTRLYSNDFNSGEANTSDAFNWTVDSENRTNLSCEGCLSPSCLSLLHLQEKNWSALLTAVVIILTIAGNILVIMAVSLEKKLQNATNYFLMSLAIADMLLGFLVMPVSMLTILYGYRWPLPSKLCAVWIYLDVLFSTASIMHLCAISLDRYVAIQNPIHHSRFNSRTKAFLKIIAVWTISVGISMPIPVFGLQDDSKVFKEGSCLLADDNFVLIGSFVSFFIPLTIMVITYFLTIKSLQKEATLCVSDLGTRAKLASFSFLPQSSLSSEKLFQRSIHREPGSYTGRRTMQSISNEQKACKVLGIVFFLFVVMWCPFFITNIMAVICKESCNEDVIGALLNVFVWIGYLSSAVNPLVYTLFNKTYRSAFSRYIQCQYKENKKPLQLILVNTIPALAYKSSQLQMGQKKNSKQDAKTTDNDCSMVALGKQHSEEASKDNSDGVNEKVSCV

coronary arteries = conditions: human coronary atherosclerosis; Golino et al.; cited from earlier work
5HT2C receptor = target: T3, 5HT2C receptor (Mus musculus, UniProt Q02152); test: saturation binding of [^125 I]DOI to membranes of Cos-7 cells expressing the 5HT2C receptor
T3 construct: expressed in transfected cells; host or cells: Cos-7
T3 sequence (Q02152 whole entry S167T/A227V/S449C): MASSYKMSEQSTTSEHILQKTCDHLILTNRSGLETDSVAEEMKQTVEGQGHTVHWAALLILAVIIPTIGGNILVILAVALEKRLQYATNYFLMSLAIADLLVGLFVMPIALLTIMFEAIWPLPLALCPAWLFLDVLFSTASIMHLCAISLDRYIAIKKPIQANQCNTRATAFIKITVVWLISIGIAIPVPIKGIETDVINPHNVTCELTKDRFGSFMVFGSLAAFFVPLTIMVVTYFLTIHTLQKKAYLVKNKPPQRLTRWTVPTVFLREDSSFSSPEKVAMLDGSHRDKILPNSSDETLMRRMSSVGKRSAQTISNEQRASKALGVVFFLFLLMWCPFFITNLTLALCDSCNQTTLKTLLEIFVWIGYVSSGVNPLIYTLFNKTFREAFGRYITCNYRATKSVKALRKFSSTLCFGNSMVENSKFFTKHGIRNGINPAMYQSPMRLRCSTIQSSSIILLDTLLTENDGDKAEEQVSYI
Procedure: FIG. 1 Scatchard curve of the results of experiments for the binding, at saturation, of [^125 I]DOI to the membranes of Cos-7 cells expressing the 5HT2C receptor.
The cDNA fragment isolated in Example 1 was inserted into an eukaryotic expression vector, which was used to transfect Cos-7 cells. The membranes of the transfected cells obtained were then prepared and tested for their capacity to bind certain labelled serotoninergic ligands.
The cDNA encoding the 5HT2C receptor was isolated in the form of a 1372 pb XbaI-EcoRI fragment and then inserted at the corresponding sites of the vector p513. The vector p513 is derived from the vector pSG5 [Green et al., Nucl. Acids Res. 16 (1988) 369] by addition of a multiple cloning site. The recombinant vector thus obtained, designated p513NP75, was then used (10 μg per 10 cm dish) to transfect the Cos-7 cells in the presence of calcium phosphate.
48 Hours after transfection, the recombinant cells are harvested and the membranes are prepared according to the technique described by Amlaiky and Caron [J. Biol. Chem. 260 (1985) 1983].
Saturation binding and competition experiments were then carried out on these membranes in the presence of [^125 I]DOI (2200 Ci/mmol; New England Nuclear) and various test compounds.
(§1) The [^125 I]DOI (dimethoxyphenyl isopropylamine) was first used alone, in order to detect the expression of the gene encoding the receptors of the invention in the membranes of the recombinant cells. For this purpose, 100 μl of membrane suspension ([…]) of proteins) were incubated for 30 minutes at 30° C. in the presence of the radioactive ligand (50 μl) and 50 μl of 50 mM Tris-HCl buffer (pH 7.4), 150 mM NaCl, 10 mm MgCl2, final volume: 200 μl. The reaction is then stopped by addition of an isoosmotic ice-cold solution, then by filtration on Whatman GF/B filters, followed by 4 rinses in 5 ml of the above ice-cold buffer. The filters are then dried and the radioactivity is measured by counting (γ counter). Non-specific binding, determined in the presence of 10 μM of cold DOI, represented about 30% of the total binding.

[2] = system: membranes of the control cells (transfected with plasmid pSG5); test: [^125 I]DOI binding to membranes of control cells (transfected with plasmid pSG5)
Procedure: as §1
These cells therefore indeed express a functional serotonin receptor.

[3] = system: translation of the intracellular signal; test: translation of the intracellular signal by the truncated receptor; assay type: cell-based, mouse; conditions: truncated protein
Text: The physiological role of this form of the receptor remains unknown, but it seems likely that it serves to protect certain sensitive targets, such as the vascular endothelium, from harmful stimulations by locally "diluting" the effect of the ligand, in this case serotonin.

[4] = [^125 I]DOI displacement, COS membranes, truncated receptor, at least three experiments in triplicate, read-out: pKD, binding to the COS T (converted)
[5] = Table 1 comparison column, source of values not stated
[6] = [^125 I]DOI displacement, Cos-7 membranes, whole receptor, at least three experiments in triplicate, read-out: pKD, binding to the COS N cells (converted)

whole (N) 5HT2C receptor, sequence (Q02152 whole entry S167T/A227V/S449C, the tested form may be a part): as the sequence (Q02152 whole entry S167T/A227V/S449C) above

| Molecule | Kd (whole (N) 5HT2C receptor) | Kd [1, 4] | Kd (5-HT1C) | Kd (whole (N) 5HT2C receptor; [6]) | Kd (5-HT2) | order of efficacy of displacement (whole (N) 5HT2C receptor; whole receptor) | further results |
| --- | --- | --- | --- | --- | --- | --- | --- |
| COc1ccc2[nH]cc(CCN(C)C)c2c1 [NNdiMe-5-MeOT] | 7410 nM | 45700 nM | – | – | – | – | – |
| CN1C2CCC1CC(OC(=O)c1c[nH]c3ccccc13)C2 (stereo not shown) [ICS 205-930] | – | > 100000 nM | 25100 nM | – | – | – | competition (whole (N) 5HT2C receptor; whole receptor): absence of competition |
| Cc1[nH]c2ccc(O)cc2c1CCN [2-Me-5-HT] | 6610 nM | > 100000 nM | 1580 nM | – | – | – | Kd (5-HT2; [5]): 6310 nM |
| NCCc1c[nH]cn1 [Histamine] | – | > 100000 nM | – | > 100000 nM | > 100000 nM | – | Kd (5-HT1C; [5]): > 100000 nM |
| CN1[C@@H]2CC[C@H]1C[C@@H](OC(=O)c1cc(Cl)cc(Cl)c1)C2 [MDL 72222] | – | > 100000 nM | – | 24000 nM | 200 nM | – | competition (whole (N) 5HT2C receptor; whole receptor): absence of competition; Kd (5-HT1C; [5]): > 10000 nM |
| Cc1nc2sccn2c(=O)c1CCN1CCC(=C(c2ccc(F)cc2)c2ccc(F)cc2)CC1 [Ritanserin] | – | – | 2.51 nM | – | – | ritanserin>N-acetyl 5-HT>methysergide>setoperone=cyproheptadine>spiperone>ketanserin>tryptamine>5-HT >8-OH-DPAT | – |
| Cn1cc(CCN)c2cc(O)ccc21 [1-ME-5-HT] | 2510 nM | 60300 nM | 3.98 nM | – | – | – | Kd (5-HT2; [5]): 501 nM |
| CN(C)CCCN1c2ccccc2Sc2ccc(Cl)cc21 [Chlorpromazine] | – | > 100000 nM | – | > 100000 nM | – | – | – |
| c1ccc2nc(N3CCNCC3)ccc2c1 [Quipazine] | – | 14100 nM | 200 nM | 6610 nM | 631 nM | – | competition (whole (N) 5HT2C receptor; whole receptor): absence of competition |
| NCCc1c[nH]c2ccccc12 [Tryptamine] | 200 nM | 14500 nM | 63.1 nM | – | – | ritanserin>N-acetyl 5-HT>methysergide>setoperone=cyproheptadine>spiperone>ketanserin>tryptamine>5-HT >8-OH-DPAT | – |
| CCCN(CCC)C1CCc2cccc(O)c2C1 (stereo not shown) [8-OH-DPAT] | 6460 nM | > 100000 nM | – | – | 10000 nM | ritanserin>N-acetyl 5-HT>methysergide>setoperone=cyproheptadine>spiperone>ketanserin>tryptamine>5-HT >8-OH-DPAT | – |
| CC[C@@H](CO)NC(=O)[C@@H]1C=C2c3cccc4c3c(cn4C)C[C@H]2N(C)C1 [Methysergide] | 12.6 nM | – | 2.51 nM | – | – | ritanserin>N-acetyl 5-HT>methysergide>setoperone=cyproheptadine>spiperone>ketanserin>tryptamine>5-HT >8-OH-DPAT | – |
| CC(=O)NCCc1c[nH]c2ccc(O)cc12 [N-Acetyl-5-HT] | 7.08 nM | 200 nM | 794 nM | – | 3160 nM | ritanserin>N-acetyl 5-HT>methysergide>setoperone=cyproheptadine>spiperone>ketanserin>tryptamine>5-HT >8-OH-DPAT | – |
| O=C(CCCN1CCC2(CC1)C(=O)NCN2c1ccccc1)c1ccc(F)cc1 [Spiperone] | – | > 100000 nM | – | 50.1 nM | – | ritanserin>N-acetyl 5-HT>methysergide>setoperone=cyproheptadine>spiperone>ketanserin>tryptamine>5-HT >8-OH-DPAT | Kd (5-HT1C; [5]): 1260 nM |
| Cc1nc2n(c(=O)c1CCN1CCC(C(=O)c3ccc(F)cc3)CC1)CCS2 [Setoperone] | – | > 100000 nM | – | 24.5 nM | 2.51 nM | ritanserin>N-acetyl 5-HT>methysergide>setoperone=cyproheptadine>spiperone>ketanserin>tryptamine>5-HT >8-OH-DPAT | Kd (5-HT1C; [5]): 50.1 nM |
| O=C(c1ccc(F)cc1)C1CCN(CCn2c(=O)[nH]c3ccccc3c2=O)CC1 [Ketanserin] | – | – | – | 204 nM | – | ritanserin>N-acetyl 5-HT>methysergide>setoperone=cyproheptadine>spiperone>ketanserin>tryptamine>5-HT >8-OH-DPAT | Kd [1]: > 100000 nM; increased sensitivity to serotonin of the contraction of the coronary arteries (coronary arteries): can be reduced by ketanserin |
| COc1cc(CC(C)N)c(OC)cc1I (stereo not shown) [DOI, dimethoxyphenyl isopropylamine] | – | – | – | – | – | – | specific binding to the membranes of the transfected cells (5HT2C receptor; [^125 I]DOI): binds specifically to the membranes of the transfected cells; Kd (5HT2C receptor; [^125 I]DOI saturation binding, 30 minutes at 30° C., pH 7.4, read-out: apparent KD): 25.8 ± 0.54 nM; affinity for the transfected cells (5HT2C receptor; [^125 I]DOI saturation binding, FIG. 1): high and the binding is saturable; non-specific binding (of the total binding) (5HT2C receptor; in the presence of 10 μM of cold DOI): about 30%; binding to membranes of the control cells [2]: not to the membranes of the control cells |
| CN1CCC(=C2c3ccccc3C=Cc3ccccc32)CC1 [Cyproheptadine] | – | – | – | – | – | – | Kd (5-HT1C; [5]): 12.6 nM |
| truncated protein: receptor having only the first three transmembrane domains, residues 1 to 177 SEQ ID No. 2 plus 14 C-terminal amino acids (protein, plus 14 C-terminal amino acids) MASSYKMSEQSTTSEHILQKTCDHLILTNRSGLETDSVAEEMKQTVEGQGHTVHWAALLILAVIIPTIGGNILVILAVALEKRLQYATNYFLMSLAIADLLVGLFVMPIALLTIMFEAIWPLPLALCPAWLFLDVLFSTASIMHLCAISLDRYIAIKKPIQANQCNTRATAFIKITV | – | – | – | – | – | – | translation of the intracellular signal [3]: completely abolished |
